Experimental data: ChEMBL document CHEMBL1124789, “Angiotensin-converting enzyme inhibitors. 9. Novel [[N-(1-carboxy-3-phenylpropyl)amino]acyl]glycine derivatives with diuretic activity” (J Med Chem, 1990)
The source made the active and inactive calls. No cut-off for these calls is given here.

Key:
[1] = target: Angiotensin-converting enzyme (Homo sapiens) (UniProt P12821); assay: […] inhibitory activity against angiotensin I converting enzyme (ACE) in dog
[2] = tested on: Canis familiaris; assay: Maximum percent decrease in blood pressure at the dose of 100 mg/kg ip; format: functional, Canis lupus familiaris; details: route intraperitoneal
[3] = tested on: Canis familiaris; assay: Diuretic activity (ip) was tested in dogs;ND- Natriuresis and diuresis; format: functional, organism-based; details: Canis lupus familiaris; Urine
[4] = tested on: Canis familiaris; assay: Maximum percent decrease in blood pressure at the dose of 1.0 mg/kg ip; format: functional, Canis lupus familiaris; details: route intraperitoneal
[5] = tested on: Canis familiaris; assay: Diuretic activity (ip) was tested in dogs; NI-No Increase; format: functional, organism-based; details: Canis lupus familiaris; Urine
[6] = target: T1, Angiotensin-converting enzyme (Rattus norvegicus) (UniProt P47820); assay: Inhibition of Angiotensin I converting enzyme at the dose of 30 mg/kg (po) in rat; format: organism-based; design: dose 30 mg/kg; scale not given: the % may be the effect or the level left
T1 sequence (whole entry): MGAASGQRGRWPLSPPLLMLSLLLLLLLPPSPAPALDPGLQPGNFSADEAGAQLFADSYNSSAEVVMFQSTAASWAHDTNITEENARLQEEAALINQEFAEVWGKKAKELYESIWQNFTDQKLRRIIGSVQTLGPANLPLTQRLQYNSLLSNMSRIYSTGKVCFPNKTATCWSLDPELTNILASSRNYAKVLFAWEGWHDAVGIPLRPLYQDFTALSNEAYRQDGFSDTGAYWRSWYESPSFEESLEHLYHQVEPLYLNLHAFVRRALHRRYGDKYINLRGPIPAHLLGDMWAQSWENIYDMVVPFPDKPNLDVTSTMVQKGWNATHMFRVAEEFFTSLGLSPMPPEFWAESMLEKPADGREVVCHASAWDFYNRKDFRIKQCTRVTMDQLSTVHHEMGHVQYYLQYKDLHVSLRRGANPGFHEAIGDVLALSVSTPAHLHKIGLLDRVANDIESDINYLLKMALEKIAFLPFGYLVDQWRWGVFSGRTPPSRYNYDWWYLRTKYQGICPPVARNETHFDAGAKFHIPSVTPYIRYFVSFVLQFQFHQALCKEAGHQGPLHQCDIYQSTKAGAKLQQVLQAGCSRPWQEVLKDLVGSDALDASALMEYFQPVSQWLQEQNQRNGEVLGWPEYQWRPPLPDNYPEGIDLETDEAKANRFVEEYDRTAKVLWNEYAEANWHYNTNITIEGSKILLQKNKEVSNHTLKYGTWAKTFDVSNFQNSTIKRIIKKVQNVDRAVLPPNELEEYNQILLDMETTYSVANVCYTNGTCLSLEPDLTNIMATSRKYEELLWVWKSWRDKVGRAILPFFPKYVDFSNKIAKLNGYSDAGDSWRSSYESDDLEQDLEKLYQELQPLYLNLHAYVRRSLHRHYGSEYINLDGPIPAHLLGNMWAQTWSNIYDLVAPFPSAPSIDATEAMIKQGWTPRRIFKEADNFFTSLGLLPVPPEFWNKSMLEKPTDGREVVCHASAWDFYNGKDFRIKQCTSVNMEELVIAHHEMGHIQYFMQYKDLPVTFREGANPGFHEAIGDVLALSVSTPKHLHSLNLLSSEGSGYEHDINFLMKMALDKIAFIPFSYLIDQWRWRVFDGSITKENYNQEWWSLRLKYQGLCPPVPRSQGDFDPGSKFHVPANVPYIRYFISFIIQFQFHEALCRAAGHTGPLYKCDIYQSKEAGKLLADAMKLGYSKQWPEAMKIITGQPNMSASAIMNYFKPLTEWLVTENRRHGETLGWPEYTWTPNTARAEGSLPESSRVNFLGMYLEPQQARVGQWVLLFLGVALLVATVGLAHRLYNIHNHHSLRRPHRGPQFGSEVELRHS

[7] = species: Rattus norvegicus; assay: Duration of action of the compound; format: functional
[8] = tested on: Canis familiaris; assay: Diuretic activity (po);NI- No Increase; format: functional, organism-based; details: Canis lupus familiaris; Urine
[9] = target: T1, Angiotensin-converting enzyme (Rattus norvegicus); assay: In vitro inhibitory activity against Angiotensin I converting enzyme at 100 uM concentration.

Chain of Angiotensin-converting enzyme (Homo sapiens) (P12821 whole entry): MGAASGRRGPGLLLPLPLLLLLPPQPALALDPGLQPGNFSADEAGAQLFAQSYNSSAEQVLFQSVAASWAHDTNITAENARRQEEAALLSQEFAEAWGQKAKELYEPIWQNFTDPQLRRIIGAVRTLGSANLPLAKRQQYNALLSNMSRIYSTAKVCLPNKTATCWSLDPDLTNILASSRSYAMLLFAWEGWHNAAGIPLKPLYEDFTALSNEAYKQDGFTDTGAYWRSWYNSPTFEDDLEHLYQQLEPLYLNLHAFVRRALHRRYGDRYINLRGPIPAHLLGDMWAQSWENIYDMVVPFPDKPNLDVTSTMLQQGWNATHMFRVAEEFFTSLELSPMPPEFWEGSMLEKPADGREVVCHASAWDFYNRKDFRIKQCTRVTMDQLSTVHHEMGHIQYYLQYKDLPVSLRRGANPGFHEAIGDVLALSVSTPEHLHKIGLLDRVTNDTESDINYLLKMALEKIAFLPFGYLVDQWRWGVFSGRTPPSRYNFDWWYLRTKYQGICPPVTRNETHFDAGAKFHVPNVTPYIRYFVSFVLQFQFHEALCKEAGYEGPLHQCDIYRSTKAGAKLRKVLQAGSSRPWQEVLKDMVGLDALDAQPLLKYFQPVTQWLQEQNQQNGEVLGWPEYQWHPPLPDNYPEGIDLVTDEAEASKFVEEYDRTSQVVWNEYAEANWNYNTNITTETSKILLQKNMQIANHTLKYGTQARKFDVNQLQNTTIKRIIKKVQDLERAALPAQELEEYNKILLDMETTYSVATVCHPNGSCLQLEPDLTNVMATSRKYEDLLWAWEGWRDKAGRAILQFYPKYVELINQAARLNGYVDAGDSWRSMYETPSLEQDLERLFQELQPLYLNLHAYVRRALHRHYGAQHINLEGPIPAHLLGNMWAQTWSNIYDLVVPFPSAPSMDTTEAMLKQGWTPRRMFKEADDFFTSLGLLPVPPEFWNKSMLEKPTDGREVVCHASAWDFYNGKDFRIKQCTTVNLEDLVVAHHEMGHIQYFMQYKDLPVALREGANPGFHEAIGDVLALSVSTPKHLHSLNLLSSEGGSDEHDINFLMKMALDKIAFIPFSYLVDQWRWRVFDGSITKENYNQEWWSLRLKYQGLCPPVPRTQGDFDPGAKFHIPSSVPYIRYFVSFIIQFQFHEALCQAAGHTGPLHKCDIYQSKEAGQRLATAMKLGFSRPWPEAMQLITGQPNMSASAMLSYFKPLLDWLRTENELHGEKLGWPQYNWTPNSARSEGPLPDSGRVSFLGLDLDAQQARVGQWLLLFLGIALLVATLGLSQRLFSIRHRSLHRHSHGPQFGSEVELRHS

SMILES: NS(=O)(=O)c1cc2c(cc1Cl)NCNS2(=O)=O [HYDROCHLOROTHIAZIDE]
- ED50 [1]: > 100 mg/kg
- Decrease [2]: 0%
- Activity [3]: Active

SMILES: CCOC(=O)[C@H](CCc1ccccc1)N[C@@H](C)C(=O)N1CCC[C@H]1C(=O)O [ENALAPRIL]
- Decrease [4]: 38%
- Activity [5]: inactive

SMILES: CCOC(=O)[C@H](CCc1ccccc1)N[C@@H](C)C(=O)N(CC(=O)O)NC(=O)c1ccc(Cl)c(S(N)(=O)=O)c1.Cl
- Activity [6]: 50%
- Duration [7]: < 1 h
- Activity [8]: No increase
- inhibition [9]: 40%
